The assay addresses ABCB1 (P-glycoprotein) (Homo sapiens, UniProt P08183). Kind of assay: Vanadate-sensitive ABCB1 ATPase stimulation in cell membranes (PREDEASY kit); also [3H]-paclitaxel accumulation/efflux in KB-C2 cells. Format: biochemical.

pEC50: −log10 of the molar value.

Chain of ABCB1 (P-glycoprotein) (P08183 whole entry): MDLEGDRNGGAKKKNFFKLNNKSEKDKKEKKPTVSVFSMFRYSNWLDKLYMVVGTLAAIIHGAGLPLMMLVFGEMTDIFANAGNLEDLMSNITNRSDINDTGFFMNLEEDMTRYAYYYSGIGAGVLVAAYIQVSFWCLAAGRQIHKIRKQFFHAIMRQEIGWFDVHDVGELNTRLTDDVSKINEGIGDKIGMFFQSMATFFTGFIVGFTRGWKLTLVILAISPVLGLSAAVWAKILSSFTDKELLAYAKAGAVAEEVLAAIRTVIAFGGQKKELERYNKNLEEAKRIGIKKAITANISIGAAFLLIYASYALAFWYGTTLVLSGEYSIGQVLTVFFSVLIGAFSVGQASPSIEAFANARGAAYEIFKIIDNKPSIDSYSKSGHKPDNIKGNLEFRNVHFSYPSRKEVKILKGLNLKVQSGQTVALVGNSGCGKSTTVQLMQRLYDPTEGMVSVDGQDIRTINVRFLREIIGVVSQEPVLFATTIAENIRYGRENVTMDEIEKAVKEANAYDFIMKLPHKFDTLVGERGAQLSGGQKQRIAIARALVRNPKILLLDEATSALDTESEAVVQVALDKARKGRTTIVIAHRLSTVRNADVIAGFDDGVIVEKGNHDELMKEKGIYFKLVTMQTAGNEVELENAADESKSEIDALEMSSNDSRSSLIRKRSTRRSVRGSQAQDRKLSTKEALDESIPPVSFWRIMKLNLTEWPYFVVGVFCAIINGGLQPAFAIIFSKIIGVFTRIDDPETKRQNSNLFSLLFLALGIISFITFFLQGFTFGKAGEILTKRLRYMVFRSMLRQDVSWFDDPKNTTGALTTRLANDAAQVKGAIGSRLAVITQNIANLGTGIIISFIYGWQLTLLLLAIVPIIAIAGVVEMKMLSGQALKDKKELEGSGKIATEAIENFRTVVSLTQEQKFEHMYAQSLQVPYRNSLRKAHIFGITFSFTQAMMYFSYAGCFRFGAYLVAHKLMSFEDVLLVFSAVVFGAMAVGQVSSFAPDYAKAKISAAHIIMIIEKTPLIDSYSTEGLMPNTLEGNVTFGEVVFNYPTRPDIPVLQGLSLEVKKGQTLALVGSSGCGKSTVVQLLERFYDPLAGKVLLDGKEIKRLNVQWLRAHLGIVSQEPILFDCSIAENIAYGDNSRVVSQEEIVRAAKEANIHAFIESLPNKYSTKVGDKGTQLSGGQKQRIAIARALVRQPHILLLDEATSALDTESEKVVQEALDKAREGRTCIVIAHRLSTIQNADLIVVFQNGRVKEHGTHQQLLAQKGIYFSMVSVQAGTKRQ

`COc1ccc2cc1Oc1ccc(cc1)C[C@H]1c3cc(c(OC)cc3CCN1C)Oc1c(OC)c(OC)cc3c1[C@H](C2)N(C)CC3` [tetrandrine] gave a pEC50 of 6.33.

As a reminder, the pEC50 is −log10 of the EC50, conventionally taken in molar units. The low end stands for a large EC50, the high end for a small EC50.

(Values after article PMC6930469, “Tetrandrine Interaction with ABCB1 Reverses Multidrug Resistance in Cancer Cells Through Competition with Anti-Cancer Drugs Followed by Downregulation of ABCB1 Expression” (Molecules, 2019).)
